# Source: US11779582B2, “Composition for preventing or treating metastatic ovarian cancer, endometrial cancer or breast cancer” (LEMONEX INC., priority 2017, dated 2023)
# Tests used:
# Format in all cases: cell-based
# [1] = tested on: sphere cultured SKOV3ip1 ovarian cancer cells; experiment: crystal violet cell viability, 3D sphere culture
# Method: For 3D sphere culture, SKOV3ip1 cells (1×10^6) were dispensed on ultra-low adherent 6-well plate (Corning NY, USA), and then, cultured in 5% CO2 incubator using RPMI 1640 medium supplemented with 10% fetal bovine serum (Gibco, NY, USA) and 10 U/ml penicillin/streptomycin (Gibco).
# In order to assess the cell viability in the sphere cultured cells, the SKOV3ip1 cells (5×10^4) were dispensed on the super-low adherent 24-well plate and cultured overnight. The cells were harvested from each well and the commercial 24-well plate was moved, followed by further incubation for 12 hours. The adhered and visualized cells were stained with 0.2% crystal violet solution for 20 minutes while gently agitating the same. The stained cells were washed with distilled water until a clean background is observed. For assessment using a colorimeter, the crystal violet dye was extracted with 1% SDS/PBS and absorbance was measured at 570 nm wavelength by EMax PLUS microplate reader (Molecular Device, USA).
# The monolayer cultured or sphere cultured SKOV3ip1 cells were treated with the tyrosine kinase inhibitor and paclitaxel for 72 hours, the cell viability was determined by the crystal violet colorimeter, and results thereof are shown in FIG. 3.
# Since the cell survival of the sphere cultured SKOV3ip1 cells is inhibited by BGJ398 treatment, whether such cell survival inhibition is intermediated through JAK/STAT3 signaling pathway was further examined. For this purpose, the selective JAK tyrosine kinase inhibitor AG490 was used at different concentrations of 3.125 to 50 μM in order to treat the monolayer cultured or sphere cultured SKOV3ip1 cells, and after 72 hours, whether it affects the cell viability and AKT and STAT3 activation was examined through crystal violet staining and immunostaining assay, and results thereof are shown in FIG. 7. Actin was used as a loading control group.
# Under this ground, when administering BGJ398 in combination with paclitaxel typically used as the existing primary anticancer drug for ovarian cancer, whether paclitaxel resistance of the sphere cultured cells is overcome and improved was determined.
# [2] = tested on: AKT and STAT3 phosphorylation in sphere cultured SKOV3ip1 cells; experiment: immunostaining of AKT and STAT3 phosphorylation, sphere culture
# Text: In order to identify whether a change in signaling pathways associated with cell survival appears or not according to 2D monolayer culture (2D MC) and 3D sphere culture (3D SC), immunostaining was implemented. More particularly, after culturing SKOV3ip1 cells (1×10^6) by 2D monolayer culture or 3D sphere culture described in section 1.1, expression of cell-signaling molecules including AKT, STAT3, p42/44 ERK and p38 MAPK was detected and activation states in the monolayer cultured cells and the sphere cultured cells were compared. The monolayer cultured or sphere cultured SKOV3ip1 cells were harvested and washed once with ice-cold 1× phosphate buffered saline, followed by dissolving the same in 100 μl ice-cold RIPA buffer (20 mM Tris-Cl, pH 8.0, 125 mM NaCl, […], 1 mM ethylene diamine tetraacetic acid, 1% Triton X-100, 0.5% sodium deoxycholate, 0.1% sodium dodecyl sulfate, 1× complete protease inhibitor cocktail (Roche, Mannheim, Germany)) on ice. After assessing the protein concentration using a Bradford Protein assay kit (Biorad, CA, USA), the same amount of proteins (30 μg) was separated by SDS-PAGE and moved to a nitrocellulose membrane, followed by immunostaining the same using a horseradish peroxide conjugated second antibody and a specific antibody. An immune activation band was detected with SuperSignal West Pico Chemiluminescent Substrate (Thermo, IL, USA) using a Fusion Solo chemiluminescence analyzer (Vilber Rourmat Marne la Vallee, France). Antibodies to STAT3 (H-190), STAT3 (B-7) phosphorylated at Tyr705 and actin (C-2) were purchased from Santa Cruz Biotechnology. Rabbit monoclonal antibodies on AKT, AKT (D9E) phosphorylated at Ser473, FGFR1 phosphorylated at Tyr 653/654, p42/44 MAPK, phosphorylated p42/44 MAPK, p38 MAPK and p38 MAPK phosphorylated at Tyr 180/182 were purchased from Cell Signaling Technology (MA, USA). Further, HRP-conjugated goat anti-mouse and rabbit secondary antibodies were purchased from Jackson Laboratories, while BGJ398 used in the experiment (against FGFR1/2/3) was purchased from Selleckchem (USA).
# Under this ground, in order to determine whether BGJ398 can vary the state of AKT and STAT3 in the sphere cultured SKOV3ip1 cells, the monolayer cultured (MC) or sphere cultured (SC) SKOV3ip1 cells were subjected to treatment using 5 μM BGJ398, followed by examining the degree of phosphorylation due to the above treatment.
# Further, the sphere cultured SKOV3ip1 cells were treated with 5 μM BGJ398 (BGJ), 3 μM TAE648 (TAE) and 5 μM imatinib (IMT), respectively. After 72 hours, a cell lysate was obtained and subjected to immunostaining, followed by analyzing active cellular expression of AKT and STAT3 with the antibody for the same. Further, a phosphorylation level of FGFR1 was used as a positive control group relative to BGJ treatment groups while actin was used as a loading control group. The immunostaining assay procedure was implemented in the same manner as in Example 1.
# Since the cell survival of the sphere cultured SKOV3ip1 cells is inhibited by BGJ398 treatment, whether such cell survival inhibition is intermediated through JAK/STAT3 signaling pathway was further examined. […]
# [3] = tested on: SKOV3-TR ovarian cancer cells; experiment: microscopic analysis of cell shape change due to cytotoxicity
# Method: According to the same procedures as described in the previous examples, each cell line was divided and cultured by 2D monolayer culture and 3D sphere culture, respectively. Then, a change due to administration of BGJ398 alone or in combination with paclitaxel was analyzed through morphological analysis and crystal violet staining assay.
# FIG. 20 illustrates a change in cell shape due to cytotoxicity under microscopic analysis, when paclitaxel alone, BGJ398 alone or in combination with paclitaxel was administered to SKOV3-TR ovarian cancer cells.
# [4] = tested on: cleaved PARP in SKOV3-TR ovarian cancer cells; experiment: cleaved PARP immunostaining; conditions: BGJ398 in combination with paclitaxel (FIGS. 24 and 25)
# Text: In order to identify whether a change in signaling pathways associated with cell survival appears or not according to 2D monolayer culture (2D MC) and 3D sphere culture (3D SC), immunostaining was implemented. More particularly, after culturing SKOV3ip1 cells (1×10^6) by 2D monolayer culture or 3D sphere culture described in section 1.1, expression of cell-signaling molecules including AKT, STAT3, p42/44 ERK and p38 MAPK was detected and activation states in the monolayer cultured cells and the sphere cultured cells were compared. […] An immune activation band was detected with SuperSignal West Pico Chemiluminescent Substrate (Thermo, IL, USA) using a Fusion Solo chemiluminescence analyzer (Vilber Rourmat Marne la Vallee, France). […]
# FIGS. 24 and 25 illustrate expression of cleaved PARP and actin upon administration of paclitaxel alone, BGJ398 alone or in combination with paclitaxel to SKOV3-TR ovarian cancer cells, which was determined by the immunostaining method described above.
smiles,measurement,setting,value
"CCN1CCN(c2ccc(Nc3cc(N(C)C(=O)Nc4c(Cl)c(OC)cc(OC)c4Cl)ncn3)cc2)CC1 [BGJ398, 3-(2,6-dichloro-3,5-dimethoxyphenyl)-1-[6-[4-(4-ethylpiperazin-1yl)anilino]pyrimidin-4-yl]-1-methylurea]",paclitaxel sensitivity,"[1]; 3D cultured SKOV3ip1, 1.25 and 5 μM BGJ398 with paclitaxel vs BGJ398 untreated group",increased paclitaxel sensitivity in a dose-dependent manner
same,cytotoxicity,"[1]; 3D sphere cultured SKOV3ip1, 1 μM BGJ398, Day 3",showed cytotoxicity
same,cell viability,"[1]; sphere cultured SKOV3ip1, 72 hours, different concentrations, crystal violet colorimeter (FIG. 3)",reduced the cell viability in a dose-dependent manner
same,cell apoptosis,"[1]; sphere cultured SKOV3ip1, paclitaxel in combination with BGJ398 vs paclitaxel alone, 72 hours (FIG. 8)",higher cell apoptosis than the cells treated with paclitaxel alone
same,AKT and STAT3 phosphorylation,"[2]; sphere cultured SKOV3ip1, 5 μM BGJ398 (FIG. 6), AG490, 72 hours (FIG. 7B)",suppressed again
same,phosphorylated AKT at Ser473,"[2]; sphere cultured, 5 μM BGJ398, 3 μM TAE648, 5 μM imatinib, 72 hours (FIG. 6)",inhibits phosphorylated AKT at Ser473 residue
same,cytotoxicity and morphological change,[3]; 2.5 μM BGJ398 in combination with 50 nM paclitaxel (FIG. 20),a detachment phenomenon due to cytotoxicity and formation of cells in irregular shapes
same,cytotoxicity and morphological change,[3]; single agent: 2.5 μM BGJ398 or 50 nM paclitaxel (FIG. 20),negligible cytotoxicity and no morphological change
same,expression of cleaved PARP and actin,[4],increased in concentration- and time-dependent manners
